molecular target: Phosphatidylinositol 4,5-bisphosphate 3-kinase catalytic subunit alpha isoform (Homo sapiens, UniProt P42336); assay: Enzyme Assay
Sequence (P42336 whole entry, canonical isoform): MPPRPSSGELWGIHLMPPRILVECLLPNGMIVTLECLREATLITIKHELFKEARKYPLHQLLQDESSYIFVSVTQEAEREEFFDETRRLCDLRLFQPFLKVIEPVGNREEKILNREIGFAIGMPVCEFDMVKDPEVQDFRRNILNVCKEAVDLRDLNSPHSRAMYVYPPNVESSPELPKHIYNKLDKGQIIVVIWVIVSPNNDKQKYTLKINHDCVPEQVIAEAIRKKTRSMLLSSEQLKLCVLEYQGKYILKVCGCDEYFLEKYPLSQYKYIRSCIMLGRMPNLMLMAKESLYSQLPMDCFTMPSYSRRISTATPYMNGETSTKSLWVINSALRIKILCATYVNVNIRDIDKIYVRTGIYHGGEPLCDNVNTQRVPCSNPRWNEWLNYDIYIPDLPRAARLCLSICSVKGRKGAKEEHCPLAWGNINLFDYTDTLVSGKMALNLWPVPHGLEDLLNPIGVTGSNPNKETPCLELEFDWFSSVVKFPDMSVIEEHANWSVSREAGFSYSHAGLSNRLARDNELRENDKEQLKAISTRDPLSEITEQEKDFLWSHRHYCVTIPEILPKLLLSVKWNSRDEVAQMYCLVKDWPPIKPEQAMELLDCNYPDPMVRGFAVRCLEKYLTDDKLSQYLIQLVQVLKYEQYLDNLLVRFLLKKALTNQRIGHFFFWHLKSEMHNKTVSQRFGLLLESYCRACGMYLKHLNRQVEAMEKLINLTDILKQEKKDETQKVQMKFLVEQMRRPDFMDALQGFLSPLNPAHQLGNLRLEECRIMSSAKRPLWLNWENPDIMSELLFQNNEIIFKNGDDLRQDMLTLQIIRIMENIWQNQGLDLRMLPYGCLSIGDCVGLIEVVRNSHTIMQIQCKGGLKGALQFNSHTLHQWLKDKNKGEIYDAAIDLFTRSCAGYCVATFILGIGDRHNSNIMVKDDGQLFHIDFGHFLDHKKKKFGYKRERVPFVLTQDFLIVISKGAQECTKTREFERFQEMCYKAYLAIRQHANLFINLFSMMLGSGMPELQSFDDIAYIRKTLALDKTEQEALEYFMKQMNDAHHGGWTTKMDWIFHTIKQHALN
From the text: Inhibition of PI3 kinase by WmC20 derivatives causing a formation of covalent bond between WmC20 derivatives and the target protein.

Row | IC50 | Compound
1 | 1140 nM | COC[C@H]1OC(=O)C(CSCC(NC(C)=O)C(=O)O)=C2C(=O)C(=O)C3=C([C@H](OC(C)=O)C[C@]4(C)C(=O)CCC34)[C@]21C (some centres undefined) [WmC20-cys, 3]
2 | 108 nM | COC[C@H]1OC(=O)C(=CN(C)CCCCCC(=O)O)C2C(=O)C(=O)C3=C([C@H](OC(C)=O)C[C@]4(C)C(=O)CC[C@@H]34)[C@]21C (some centres undefined) [WmC20-NMeHA, 4]
3 | > 1000 nM | COC[C@H]1OC(=O)C(=CNCCCCC(NC(C)=O)C(=O)O)C2C(=O)C(=O)C3=C([C@H](OC(C)=O)C[C@]4(C)C(=O)CC[C@@H]34)[C@]21C (some centres undefined) [WmC20-lys, 2]

Row | Compound | IC50
4 | COC[C@H]1OC(=O)C(=CN2CCCC2C(=O)O)C2C(=O)C(=O)C3=C([C@H](OC(C)=O)C[C@]4(C)C(=O)CC[C@@H]34)[C@]21C (some centres undefined) [WmC20-pro, 1] | 68 nM
